The text below walks through data of US20040082605A1, “Use” (priority 2001, published 2004).

Structures are written as SMILES.

This test relates to gastric (corpus) ulcers induced by indomethacin. The experiment in a line: Indomethacin induced gastric ulcer in rats, stomach examined macroscopically. Type of test: in vivo. Conditions: male rats; for Median number of gastric (corpus) ulcers induced by indomethacin: Ulcer furrows / Median number of gastric (corpus) ulcers induced by indomethacin: Pinhead ulcers: stomach removed 5 h after indomethacin; for Median number of gastric (corpus) ulcers induced by indomethacin: Ulcer furrows: furrows >3 mm; for Median number of gastric (corpus) ulcers induced by indomethacin: Pinhead ulcers: pinhead = diameter 3 mm or less; for Effect against gastric ulcers induced by indomethacin: oral dosing 1 h before indomethacin 20 mg/kg orally, result in words. Here is the method:
Groups of […] male rats were given oral doses of vehicle, 2,3-dimethyl-8-(2-ethyl-6-methylbenzylamino)-imidazo[1,2-a]pyridine-6-carboxamide(0.3, 1, 3 and 10 μmol/kg) or ranitidine (10 μmol/kg). Indomethacin 20 mg/kg, orally) was given 1 h after dosing. Stomach was removed 5 h after indomethacin and examined macroscopically Indomethacin induced ulcers in the corpus only, rumen and anthrum were unaffected. Ulcers in the corpus were classified as pinhead (diameter 3 mm or less) or furrows (>3 mm).

The mark [1] stands for this setting: oral dose 0.3 μmol/kg 1 h before indomethacin 20 mg/kg orally.
The mark [2] stands for this setting: oral dose 1 μmol/kg 1 h before indomethacin 20 mg/kg orally.
Setting [3] is: oral dose 3 μmol/kg 1 h before indomethacin 20 mg/kg orally.
Setting [4] is: oral dose 10 μmol/kg 1 h before indomethacin 20 mg/kg orally.
Setting [5] is: oral doses 0.3, 1, 3 and 10 μmol/kg.

Take `CCc1cccc(C)c1CNc1cc(C(N)=O)cn2c(C)c(C)nc12` [2,3-dimethyl-8-(2-ethyl-6-methylbenzylamino)-imidazo[1,2-a]pyridine-6-carboxamide]: the “Effect against gastric ulcers induced by indomethacin” value is “protective effect”. Also, under setting [1], the “Median number of gastric (corpus) ulcers induced by indomethacin: Ulcer furrows” value (“Median number of gastric … Ulcer furrows” for short) turned out to be 8 and the “Median number of gastric (corpus) ulcers induced by indomethacin: Pinhead ulcers” value (shortened to “Median number of gastric … Pinhead ulcers”) was found to be 5. Besides, under setting [2], the “Median number of gastric … Ulcer furrows” value is 9 and the “Median number of gastric … Pinhead ulcers” value came to 5. Also, under setting [3], the “Median number of gastric … Ulcer furrows” value is 1 and the “Median number of gastric … Pinhead ulcers” value is given as 2. Under setting [4], the “Median number of gastric … Ulcer furrows” value was found to be 0 and the “Median number of gastric … Pinhead ulcers” value is recorded as 0. For the same compound, under setting [5], the “Dose at which the decrease in pinhead ulcers and ulcer furrows was maximal” value turned out to be 10 µmol/kg; the “Dose from which the decrease in pinhead ulcers and ulcer furrows was statistically significant” value stood at 3 µmol/kg.

Regarding `CNC(=C[N+](=O)[O-])NCCSCc1ccc(CN(C)C)o1` [Ranitidine, ranitidine, reference compound], the “Effect against gastric ulcers induced by indomethacin” value was “no effect”. Under setting [4], the “Median number of gastric … Ulcer furrows” value turned out to be 11 and the “Median number of gastric … Pinhead ulcers” value stood at 7.
